Test results reported in patent publication US20250324983A1, “METHOD AND APPARATUS FOR CONTROLLING ARTHROPODS USING MASSOIA ESSENTIAL OIL AND RELATED PYRONES” (The United States of America, as Represented by the …, priority 2024, published 2025).

How the values were obtained:
Aedes aegypti = assay: Spatial repellency, high-throughput glass tube assay; format: in vivo; settings: concentration repelling 50% of adult female Aedes aegypti, treated filter paper in glass tube
Method: Adult female non-bloodfed Aedes aegypti that were 2-10 days post-eclosion were cold-anesthetized by placing on ice for several minutes. Each replicate consisted of 16 anesthetized females transferred to a glass tube (length 12.5 cm, outer diameter 2.5 cm) (TriKinetics Inc., Waltham, MA). Glass tubes were then enclosed on each end by netting held in place with blue caps removed from 50-mL polypropylene centrifuge tubes (Falcon™; Corning Inc., Corning, NY). Mosquitoes were allowed at least 15 min to recover from cold anesthetization. Round filter papers (diameter 2.5 cm) (Sigma-Aldrich Chemical Co., CITY, ST) were treated with 50 μL solution of compound dissolved in acetone at different concentrations. Treated filter papers were allowed to air dry for 10 min to allow for acetone evaporation, at which point filter papers were placed inside the cut ends of 50-mL polypropylene centrifuge tubes. The end caps with treated filter paper were then placed on the ends of the glass tubes, replacing the blue caps, with the netting left to prevent mosquito escape.
Glass tube bioassay setups were placed on a contrasting white background to facilitate observing and counting mosquitoes with a black line drawn to mark the center of the tube length. Control bioassays were set up with filter papers treated with 50 μL of acetone. Repellency was calculated as a repellency ratio using the formula: number of mosquitoes on the experimental treatment side/16, where a value of 0 is equal to full repellency and a value of 0.5 indicates no effect—i.e., an even distribution of mosquitoes on either side the tube midline. Data were recorded at 15 min, 30 min, and 1 hr for repellency and knockdown, as well as at 24 hr for mortality. […] Each concentration was replicated at least three times. After use, glass tubes were decontaminated by washing in soapy water and rinsed with acetone and distilled water. Treatment caps and nettings were washed using soapy water and rinsed with distilled water. Data were analyzed using a 4-parameter logistic regression in GraphPad Prism 9. The effective concentration that repelled 50% of mosquitoes (EC50) was used to compare different treatments.

Aedes albopictus = settings: compounds identified from massoia and nutmeg essential oils; cited from earlier work
[1] = system: mosquitoes or biting flies; assay: Contact repellency, cloth patch test (minimum effective dose); format: in vivo; settings: minimum effective dose on cloth
Method: The cloth patch test can be used to assess the effective repellency duration for a particular application rate of a chemical to cloth being worn on the arm of a human subject. The test allows candidate repellents to be tested without contacting the skin. The candidate substance is dissolved initially in a suitable solvent which is typically acetone; however, can be extended to ethanol or DMSO (dimethyl sulfoxide). The typical protocol for a limited quantity of substance involves dissolving up to 75 mg of the candidate repellent into 1 mL of an appropriate volatile solvent, such as acetone or ethanol, in a 2-dram vial. The choice of solvent depends upon the miscibility characteristics of the candidate repellent. A 50 cm^2 (5 cm×10 cm) clean, untreated piece of muslin cloth is rolled, placed in the vial and sealed therein to allow the cloth to saturate completely with the solution. […] Prior to the bioassay, the saturated cloth is removed and each end of the cloth is attached to a 5 cm×2.5 cm piece of cardstock paper. To each card, masking tape is attached. The card/cloth assembly is then allowed to dry for 15 min hanging from a rack by the masking tape. This time is adequate to allow complete evaporation of the solvent from the cloth.
To prepare the arm for testing, the volunteer first places a latex or nitrile glove (extended length beyond the wrist) over the hand and arm and then pulls a nylon hose stocking over the hand and arm up to a point that is past the elbow. This glove prevents mosquitoes from biting through to the hand, wrist, and part of the arm where the glove provides protection. A thick plastic sleeve with a Velcro® strip is then fastened around the arm. There is a 4 cm×8 cm window opening cut into the sleeve. Volunteers may elect to use either of the two designs of this sleeve: one has a window opening with a screen mesh, the other is completely open. The cloth card frame is then taped onto the forearm at a position overlapping the window opening of the sleeve. This allows attractive human odors to escape through the opened area of the sleeve and this small window is the only area accessible for bites. Once the cloth/card assembly is on the arm, the arm is placed inside an insect cage with mosquitoes or biting flies for one minute. Typically, the test involves 500 biting flies or mosquitoes, but can be performed at a variety of biting pressures from 200-2000 individuals, but is rarely ever performed at a pressure of greater than 2000 in a cage. […]
If a sufficient quantity of the candidate repellent is available, the minimum effective dose (MED) can be determined. […] In these cases, stoichiometric equivalents, i.e., micromolar quantities, are applied to the cloth and tested as described above. […]

[2] = system: central nervous system (CNS) of third-fourth-instar Aedes aegypti larvae; assay: Central nervous system recording of mosquito larvae; settings: applied at 100 μM
Method: Extracellular recordings were performed on the central nervous system (CNS) of third-fourth-instar Aedes aegypti larvae as previously described in Norris et al., “Recording central neurophysiological output from mosquito larvae for neuropharmacological and insecticide resistance studies”, Journal of Insect Physiology, 135 (2021) 104319. Mosquito larvae were pinned down and dissected to expose the descending ventral nerve cord in a saline bath (157 mM NaCl, 3 mM KCl, 2 mM CaCl2), 4 mM HEPES). The ventral nerve cord was severed using a small forceps between the second and third abdominal ganglion. Descending electrical activity was monitored by drawing emanating nerve fibers from the ventral nerve cord into a suction electrode connected to an AC/DC differential amplifier (Model 3000, A-M Systems, Inc., Carlsborg, WA). Signals were subjected to window amplitude discrimination and converted into a rate plot, expressed in Hertz (Hz), using LabChart 7 Pro software (AD Instruments Inc. Colorado Springs, CO). Noise (60 Hz) was eliminated using a Hum Bug (A-M Systems, Sequim, WA,).
Electrical activity was monitored for approximately 5-10 min to establish a baseline CNS firing rate before test solutions were added to the bath in DMSO at 1 μL of solution diluted into 999 μL of saline. All concentrations of active ingredients were expressed as their final concentrations in saline. […]

[3] = system: Aedes aegypti mosquitoes (susceptible—Orlando strain); assay: Topical application, knockdown and mortality; settings: in vivo
Method: Aedes aegypti mosquitoes (susceptible—Orlando strain) were reared using standard protocols at the United States Department of Agriculture, Agricultural Research Service Center for Medical, Agricultural, and Veterinary Entomology (CMAVE) in Gainesville, FL. Mosquitoes raised from pupae were aspirated from colony cages and anesthetized on ice. Mosquitoes were then treated with 0.2 μL of variable concentrations of insecticidal active ingredients using a repeating microapplicator (Hamilton Co., Reno, NV). Ten mosquitoes were used per concentration and at least three different biological cohorts were used in the analysis. Knockdown (defined as inability to fly or orient in the upright direction) was recorded at 1 hr or other time points post application (depending on the experiment), whereas mortality (defined as no movement-ataxia) was recorded at 24 hr. Concentrations that produced 10-90% mortality at 24 hr post exposure were used in the analysis to calculate the lethal dose required to kill 50% of the population (LD50). SAS 9.4 was used to calculate the LD50 values using a PROC PROBIT model with Abbott's correction to account for any control mortality.

## CCCCCCCC1CCCC(=O)O1 (centres unmarked) [5-dodecanolide]
Aedes aegypti
  EC50 (spatial repellency): 77.11 μg/cm^2

## O=C(OCc1ccccc1)c1ccccc1O [benzyl salicylate]
Aedes albopictus
  larvicidal activity (in words): strong larvicidal activity

## CCCCCCCC1CCC(=O)O1 (centres unmarked) [γ-undecalactone]
Aedes aegypti
  EC50 (spatial repellency): 18.32 μg/cm^2

## CCCCCc1cccc(=O)o1 [α-amyl-pyrone]
Aedes aegypti
  EC50 (spatial repellency): 6.1 μg/cm^2

## CCN(CC)C(=O)c1cccc(C)c1 [DEET, N,N-Diethyl-meta-toluamide]
[1]
  MED: 0.009 ± 0.003 ^B mg/cm^2

## CCCCCCC[C@@H]1CC=CC(=O)O1 [C12 massoia lactone, C-12-massoia lactone]
Aedes albopictus
  larvicidal activity (in words): strong larvicidal activity

## CC1=CCC(=C(C)C)CC1 [terpinolene]
Aedes albopictus
  larvicidal activity (in words): strong larvicidal activity

## C/C=C/C(=O)C1C(C)C=CCC1(C)C (centres unmarked) [δ-damascone]
Aedes aegypti
  EC50 (spatial repellency): 108.5 μg/cm^2

## O=C(OCc1ccccc1)c1ccccc1 [benzyl benzoate]
Aedes albopictus
  larvicidal activity (in words): strong larvicidal activity

## δ-undecalactone
Aedes aegypti
  EC50 (spatial repellency): 29.5 μg/cm^2

## C=C1CCC2(C(C)C)CC12 (centres unmarked) [sabinene]
Aedes albopictus
  larvicidal activity (in words): strong larvicidal activity

## CCCCN(CCC(=O)OCC)C(C)=O [IR3535, ethyl butylacetylaminopropionate, reference compound]
Aedes aegypti
  EC50 (spatial repellency): 91.8 μg/cm^2

## jasmolactone
Aedes aegypti
  EC50 (spatial repellency): 60.5 μg/cm^2

## CC1(C)C(C=C(Cl)Cl)C1C(=O)OCc1cccc(Oc2ccccc2)c1 (centres unmarked) [permethrin]
[1]
  MED: 0.100 ± 0.022 ^A mg/cm^2

## CCCCCC1CC=CC(=O)O1 (centres unmarked) [massoia lactone, 2H-pyran-2-one, 5,6-dihydro-6-pentyl-]
Aedes albopictus
  larvicidal activity (in words): strong larvicidal activity
[2]
  nerve block (CNS firing): some nerve block
[3]
  Slope (LD50): 8.3
[1]
  MED: 0.007 ± 0.002 ^B mg/cm^2
Aedes aegypti
  EC50 (spatial repellency): 5.9 μg/cm^2

## CCC(C)OC(=O)N1CCCCC1CCO (centres unmarked) [icaridin]
[1]
  MED: 0.015 ± 0.004 ^B mg/cm^2
